Assay results published in US9365554B2, “Viral polymerase inhibitors” (BIOTA SCIENTIFIC MANAGEMENT PTY LTD, priority 2012, dated 2016).

Experiments:
[1] = Aqueous Solubility (laser nephelometry); format: physicochemical; details: at both pH2 and pH6.5; good solubility when >25 ug/mL
Procedure: Test compounds prepared in DMSO were screened in duplicate over a range of concentrations (1.6-100 ug/mL) in different aqueous media (for example a pH6.5 buffers which are relevant to the stomach and upper regions of the small intestine and therefore important when predicting the amount of drug likely to be in solution following oral administration). Test compounds were serially diluted in 100% DMSO ranging from 10-0.16 mg/mL. These titrated DMSO stocks were then further diluted 1:100 with assay buffer and added to test plates (UV Star Griener 384 well plates), maintaining the DMSO concentration at 1%.

[2] = target: T1, 1b (BK) NS5BΔ21 (Hepatitis C virus genotype 1b, UniProt P26663); assay: HCV Polymerase Inhibition Assay; format: biochemical; details: in each of the HCV assays tested (polymerase and replicon assays)
T1 construct: 100 nM, 1b (BK) NS5BΔ21
T1 sequence (P26663 2420-2989, stated change not applied): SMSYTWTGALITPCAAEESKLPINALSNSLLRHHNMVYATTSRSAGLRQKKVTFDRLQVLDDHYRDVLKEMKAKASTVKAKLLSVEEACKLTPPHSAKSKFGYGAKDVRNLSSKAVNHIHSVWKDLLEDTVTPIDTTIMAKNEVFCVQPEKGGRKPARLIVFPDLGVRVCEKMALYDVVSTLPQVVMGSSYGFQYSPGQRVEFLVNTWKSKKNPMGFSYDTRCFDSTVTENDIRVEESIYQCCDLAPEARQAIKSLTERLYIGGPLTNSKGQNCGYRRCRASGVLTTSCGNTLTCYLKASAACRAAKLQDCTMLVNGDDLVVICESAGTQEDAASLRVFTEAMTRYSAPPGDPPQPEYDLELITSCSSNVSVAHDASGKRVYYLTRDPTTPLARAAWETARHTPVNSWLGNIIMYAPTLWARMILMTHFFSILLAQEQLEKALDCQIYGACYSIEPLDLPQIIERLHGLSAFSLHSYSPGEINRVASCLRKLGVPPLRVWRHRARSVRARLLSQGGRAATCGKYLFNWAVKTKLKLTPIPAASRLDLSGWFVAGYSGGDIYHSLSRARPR
Procedure: HCV polymerase reactions were carried out using a modified method of Howe et al., Antimicrobial Agents and Chemotherapy 2004 48(12): 4813-4821. Reactions contained a final concentration of, 0.5% DMSO, 100 nM, 1b (BK) NS5BΔ21, 20 mM Tris-HCl pH 7.5, 5 mM MgCl2, 5 mM MnCl2, 3 mM DTT, 0.05% BSA, 0.2 U/μL RNasin, 10 μg/mL Poly(rC) template, GTP (at Km) and 0.05 μCi/μL ^33P-GTP in a total reaction volume of 50 μL. Compounds were tested in a three fold dilution series, for example starting from 50 μM. Reactions were initiated with the addition of GTP and terminated after 90 min with 50 μL ice cold 0.2 M EDTA. Terminated reactions were transferred to DEAE 96-well filter plates, unincorporated nucleotides washed from the filters and 50 μL scintillation fluid added prior to reading on a scintillation counter. The compound concentration that reduced ^33P-GTP incorporation by 50% (IC50) was calculated using non-linear regression.

SMILES	solubility (in words) [1]	times more potent than Compound A [2]
CCN(c1cc2nn(-c3ccc(C)nc3)c(C(=O)NC)c2cc1C1CC1)S(C)(=O)=O [Compound A, 5-Cyclopropyl-6-[ethyl(methylsulfonyl)amino]-N-methyl-2-(6-methylpyridin-3-yl)-2H-indazole-3-carboxamide, reference compound]	very poorly soluble	–
CCN(c1cc2nn(-c3ccc(C)cn3)c(C(=O)NC)c2cc1C1CC1)S(C)(=O)=O [Compound 5, 5-cyclopropyl-6-[ethyl(methylsulfonyl)amino]-N-methyl-2-(5-methylpyridin-2-yl)-2H-indazole-3-carboxamide]	good solubility	at least 10 times
